{"source": "patent EP4685142A1", "about": "“TRIAZINE COMPOUND AND USE THEREOF” (Chengdu Zenitar Biomedical Technology Co., Ltd., priority 2023, dated 2024)", "key": {"[1]": {"biological_target": "T1, hERG potassium ion channel (Homo sapiens, UniProt Q12809)", "T1 sequence (Q12809 whole entry)": "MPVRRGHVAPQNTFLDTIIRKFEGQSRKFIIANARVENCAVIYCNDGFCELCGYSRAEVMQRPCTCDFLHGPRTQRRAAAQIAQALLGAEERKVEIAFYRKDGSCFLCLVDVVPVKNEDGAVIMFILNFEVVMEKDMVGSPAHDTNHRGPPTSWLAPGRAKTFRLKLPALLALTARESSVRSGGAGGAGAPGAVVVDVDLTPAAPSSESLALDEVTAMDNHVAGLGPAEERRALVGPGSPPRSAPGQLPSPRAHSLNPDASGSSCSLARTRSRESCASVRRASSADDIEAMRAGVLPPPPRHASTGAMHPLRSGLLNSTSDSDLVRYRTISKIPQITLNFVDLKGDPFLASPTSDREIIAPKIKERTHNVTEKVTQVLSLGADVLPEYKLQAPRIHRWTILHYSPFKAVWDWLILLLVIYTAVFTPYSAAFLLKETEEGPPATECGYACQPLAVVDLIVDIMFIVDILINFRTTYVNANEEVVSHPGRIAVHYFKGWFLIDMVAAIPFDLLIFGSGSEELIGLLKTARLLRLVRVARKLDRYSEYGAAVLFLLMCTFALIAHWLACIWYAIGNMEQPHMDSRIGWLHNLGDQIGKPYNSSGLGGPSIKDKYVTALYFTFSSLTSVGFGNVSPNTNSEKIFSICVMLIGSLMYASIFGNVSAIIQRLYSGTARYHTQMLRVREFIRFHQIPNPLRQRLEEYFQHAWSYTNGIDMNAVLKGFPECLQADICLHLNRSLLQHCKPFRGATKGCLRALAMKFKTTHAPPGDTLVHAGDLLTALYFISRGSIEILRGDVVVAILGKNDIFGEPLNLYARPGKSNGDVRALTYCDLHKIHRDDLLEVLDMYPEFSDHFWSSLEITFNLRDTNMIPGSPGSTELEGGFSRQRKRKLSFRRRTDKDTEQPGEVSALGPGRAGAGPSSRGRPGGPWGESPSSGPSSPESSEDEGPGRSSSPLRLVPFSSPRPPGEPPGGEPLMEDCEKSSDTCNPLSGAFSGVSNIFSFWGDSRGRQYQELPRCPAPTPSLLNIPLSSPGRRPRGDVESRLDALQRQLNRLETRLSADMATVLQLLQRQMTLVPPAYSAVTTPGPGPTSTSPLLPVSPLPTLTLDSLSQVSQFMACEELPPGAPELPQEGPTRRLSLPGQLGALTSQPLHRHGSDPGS", "assay": "Inhibition of hERG potassium ion channel (CHO cells stably expressing hERG, Qpatch)"}, "[2]": {"assay": "In vivo distribution of cerebrospinal fluid and plasma", "conditions": "male, mouse, iv, 5 mg/kg", "method": "Evaluation of in vivo distribution of cerebrospinal fluid and plasma after compound administration\nExperimental procedure: the compound was weighed, followed by adding a small amount of DMSO and then adding a sodium chloride solution for injection, to prepare a 5 mg·mL^-1 compound solution for administration. […] Standard curve range: 1-1000 ng·mL^-1."}, "[3]": {"assay": "In vivo brain-to-plasma ratio in mice", "conditions": "for Brain: male mice, oral 10 mg/kg", "method": "Evaluation of in vivo brain-to-plasma ratio of compound\nExperimental purpose: to obtain the brain-to-plasma ratio of the compound\nExperimental protocol: the brain-to-plasma ratio of the compound was investigated by monitoring the content of the compound in mouse brain and plasma.\nExperimental procedure: the compound was weighed, followed by adding a small amount of DMSO and adding a sodium chloride solution for injection, to prepare a 10 mg · mL^-1 compound solution for administration. Male mice were orally administered at 10 mg · kg^-1, and whole plasma and whole brain tissue were sampled at 1 h and 6 h after administration (n=3). […] A centrifuge tube was weighed as M1, the centrifuge tube containing the whole brain tissue was weighed as M2, the centrifuge tube containing water for homogenization was weighed as M3, and the centrifuge tube after the removal of 30 µL homogenate was weighed as M4.\nStandard curve range: 10-10,000 ng·mL^-1. Content of drug in brain = measured value × 0.03 × (M3−M1)/[(M2−M1)×(M3−M4)]."}, "NLRP3 inflammasome": {"biological_target": "T2, NLRP3 inflammasome (Homo sapiens, UniProt Q96P20)", "T2 construct": "host or cells: THP-1 cells", "T2 sequence (Q96P20 whole entry)": "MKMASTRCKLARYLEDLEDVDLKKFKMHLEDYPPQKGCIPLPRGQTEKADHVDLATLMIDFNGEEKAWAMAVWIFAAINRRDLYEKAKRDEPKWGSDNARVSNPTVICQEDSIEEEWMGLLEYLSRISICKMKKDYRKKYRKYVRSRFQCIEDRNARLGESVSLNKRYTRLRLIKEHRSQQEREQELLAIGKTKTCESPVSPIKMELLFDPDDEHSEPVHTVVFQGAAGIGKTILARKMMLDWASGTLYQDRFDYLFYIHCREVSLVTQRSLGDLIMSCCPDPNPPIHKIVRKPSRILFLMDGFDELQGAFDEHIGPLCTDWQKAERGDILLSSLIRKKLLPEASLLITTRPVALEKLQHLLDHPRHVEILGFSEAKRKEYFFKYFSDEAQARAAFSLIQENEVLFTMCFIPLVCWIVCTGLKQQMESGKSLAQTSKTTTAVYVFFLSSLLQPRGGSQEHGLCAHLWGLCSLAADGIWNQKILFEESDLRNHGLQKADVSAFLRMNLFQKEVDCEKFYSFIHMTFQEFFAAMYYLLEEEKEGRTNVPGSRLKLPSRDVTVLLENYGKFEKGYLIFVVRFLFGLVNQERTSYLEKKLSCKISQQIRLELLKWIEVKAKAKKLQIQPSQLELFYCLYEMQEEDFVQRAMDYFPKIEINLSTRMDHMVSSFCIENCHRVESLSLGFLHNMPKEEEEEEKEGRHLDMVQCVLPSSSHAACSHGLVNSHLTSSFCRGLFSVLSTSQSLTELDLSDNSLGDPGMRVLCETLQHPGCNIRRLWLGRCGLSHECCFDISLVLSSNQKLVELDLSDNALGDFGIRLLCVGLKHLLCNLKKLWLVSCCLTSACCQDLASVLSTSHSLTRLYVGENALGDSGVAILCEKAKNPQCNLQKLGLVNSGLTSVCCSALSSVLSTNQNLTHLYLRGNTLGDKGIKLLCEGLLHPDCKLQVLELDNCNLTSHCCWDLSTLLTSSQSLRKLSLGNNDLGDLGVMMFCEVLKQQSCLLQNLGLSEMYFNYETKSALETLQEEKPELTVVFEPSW", "assay": "Inhibitory activity of NLRP3 inflammasome in human monocytes (THP-1 cells, LPS + Nigericin, IL-1β ELISA)", "assay_type": "cell-based", "conditions": "THP-1 cells, PMA, LPS 1 µg/mL 3 h, drug 40 min, Nigericin 10 µM 40 min, IL-1β ELISA; read-out: IC50", "in_short": "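THP-1 cells differentiated overnight with 10 µM PMA at 37°C and 5% CO2, then primed 3 h with 1 µg/mL LPS in Opti-MEM. Compound applied for 40 min, followed by 40 min with 10 µM nigericin. IL-1β in supernatant measured by ELISA.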"}, "human NLRP3 protein": {"biological_target": "human NLRP3 protein (Homo sapiens, UniProt Q96P20)", "sequence (Q96P20 whole entry)": "as above", "assay": "Affinity for human NLRP3 protein (Biacore T200, CM5 chip)", "assay_type": "binding", "conditions": "protein immobilized on CM5 chip, 25°C"}, "[4]": {"biological_target": "T1, hERG potassium ion channel", "conditions": "human"}, "[5]": {"assay": "Pharmacokinetic evaluation in Balb/c mice", "assay_type": "in vivo", "conditions": "male, Balb/c, mouse, in vivo, po, 5 mg/kg"}, "LPS-induced mice": {"tested_on": "LPS-induced mice", "assay": "LPS-induced mouse model, survival", "assay_type": "in vivo, Balb/c mice", "conditions": "for survival status of mice (mice alive) 12h / survival status of mice (mice alive) 24h / survival status of mice (mice alive) 36h / survival status of mice (mice alive) 48h / survival status of mice (mice alive) 72h: 25 mg/kg"}, "[6]": {"conditions": "male, mouse, brain/plasma, po, 10 mg/kg"}, "[7]": {"conditions": "male, mouse, plasma, po, 10 mg/kg"}}}
{"smiles": "CN1C[C@H](F)C[C@@H](Nc2nnc(-c3ccc4sccc4c3O)n(C)c2=O)C1", "note": "[Compound 40]", "values": [{"measurement": "20 uM Inhibition ratio", "setting": "[1]", "result": 3.48, "unit": "%"}, {"measurement": "concentration at 0.25 h", "setting": "[2]; cerebrospinal fluid", "result": 191, "unit": "ng/g"}, {"measurement": "concentration at 2 h", "setting": "[2]; cerebrospinal fluid", "result": 0.51, "unit": "ng/g"}, {"measurement": "concentration at 0.25 h", "setting": "[2]; plasma", "result": 5030, "unit": "ng/mL"}, {"measurement": "concentration at 2 h", "setting": "[2]; plasma", "result": 826, "unit": "ng/mL"}, {"measurement": "Brain", "setting": "[3]; 1 h", "result": 1350, "unit": "ng/g"}, {"measurement": "Brain", "setting": "[3]; 6 h", "result": 199, "unit": "ng/g"}, {"measurement": "Kp at 1 h", "setting": "[3]; [6]", "result": 0.19}, {"measurement": "Kp at 6 h", "setting": "[3]; [6]", "result": 0.14}, {"measurement": "concentration at 1 h", "setting": "[3]; [7]", "result": 7240, "unit": "ng/mL"}, {"measurement": "concentration at 6 h", "setting": "[3]; [7]", "result": 1460, "unit": "ng/mL"}, {"measurement": "IC50", "setting": "NLRP3 inflammasome", "result": 2.97, "unit": "nM"}, {"measurement": "Kd", "setting": "human NLRP3 protein", "result": 62.1, "unit": "nM"}, {"measurement": "inhibitory effects on the hERG potassium ion channel (conclusion in words)", "setting": "[4]", "result": "Conclusion: compounds 3, 4, 5, 9, 16, 17, 24, 30, 40, 41, 42, 43, 54 and others have weak inhibitory effects on the hERG potassium ion channel, having weaker inhibitory effect than the reference compound Ref-1."}, {"measurement": "AUC(0-t)", "setting": "[5]", "result": 40400, "unit": "ng·h/mL"}, {"measurement": "Cmax", "setting": "[5]", "result": 15000, "unit": "ng/mL"}, {"measurement": "half-life", "setting": "[5]", "result": 172, "unit": "min"}, {"measurement": "72h Survival rate", "setting": "LPS-induced mice; 25 mg/kg oral, 1 h before 10 mg/kg LPS i.p.", "result": 90, "unit": "%"}, {"measurement": "survival status of mice (mice alive) 12h", "setting": "LPS-induced mice; First cage (5 mice)", "result": 5}, {"measurement": "survival status of mice (mice alive) 24h", "setting": "LPS-induced mice; First cage (5 mice)", "result": 5}, {"measurement": "survival status of mice (mice alive) 36h", "setting": "LPS-induced mice; First cage (5 mice)", "result": 5}, {"measurement": "survival status of mice (mice alive) 48h", "setting": "LPS-induced mice; First cage (5 mice)", "result": 5}, {"measurement": "survival status of mice (mice alive) 72h", "setting": "LPS-induced mice; First cage (5 mice)", "result": 5}, {"measurement": "survival status of mice (mice alive) 12h", "setting": "LPS-induced mice; Second cage (5 mice)", "result": 5}, {"measurement": "survival status of mice (mice alive) 24h", "setting": "LPS-induced mice; Second cage (5 mice)", "result": 5}, {"measurement": "survival status of mice (mice alive) 36h", "setting": "LPS-induced mice; Second cage (5 mice)", "result": 5}, {"measurement": "survival status of mice (mice alive) 48h", "setting": "LPS-induced mice; Second cage (5 mice)", "result": 4}, {"measurement": "survival status of mice (mice alive) 72h", "setting": "LPS-induced mice; Second cage (5 mice)", "result": 4}]}
